Results: ChEMBL document CHEMBL4177675, “The synthesis of 2,3,6-trisubstituted 1-oxo-1,2-dihydroisoquinolines as potent CRTh2 antagonists” (Bioorg Med Chem Lett, 2017)
pKi: −log10 of the molar value.

What follows are molecules tested against T1, Prostaglandin D2 receptor 2 (Homo sapiens, UniProt Q9Y5Y4) (assay: Antagonist activity at CRTh2 (unknown origin) assessed as inhibition of CD11b activation).
T1 sequence (Q9Y5Y4 whole entry): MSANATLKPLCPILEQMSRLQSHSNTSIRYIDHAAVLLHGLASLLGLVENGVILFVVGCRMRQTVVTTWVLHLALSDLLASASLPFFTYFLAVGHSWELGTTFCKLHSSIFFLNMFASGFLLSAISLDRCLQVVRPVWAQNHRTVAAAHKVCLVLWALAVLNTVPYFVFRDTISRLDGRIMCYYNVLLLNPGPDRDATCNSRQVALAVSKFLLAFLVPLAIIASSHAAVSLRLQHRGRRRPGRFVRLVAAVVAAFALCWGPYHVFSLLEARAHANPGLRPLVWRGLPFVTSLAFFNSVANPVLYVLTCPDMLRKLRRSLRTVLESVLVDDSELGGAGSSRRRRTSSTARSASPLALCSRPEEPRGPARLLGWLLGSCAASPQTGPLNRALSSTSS
Type: functional

| pKi | Compound |
| --- | --- |
| 8.88 | O=C(O)CCCCc1cc2cc(C(=O)N[C@@H]3CCCc4cc(F)ccc43)ccc2c(=O)n1-c1ccc(F)cc1 |
| 9.40 | O=C(O)CCCCc1cc2cc(C(=O)N[C@@H]3CCCc4ccccc43)ccc2c(=O)n1-c1ccc(F)cc1 |
| 9.64 | C[C@@H](NC(=O)c1ccc2c(=O)n(-c3ccc(F)cc3)c(CCCCC(=O)O)cc2c1)c1ccc(F)cc1 |

Each molecule was assayed against T1, Prostaglandin D2 receptor 2 (assay: Binding affinity to human CRTh2 assessed by competitive binding assay).

| pKi | Compound |
| --- | --- |
| 7.66 | O=C(O)CCCCc1cc2cc(C(=O)Nc3noc(C4Cc5ccccc5C4)n3)ccc2c(=O)n1-c1ccc(F)cc1 |
| 7.89 | CC(c1ccc(F)cc1)c1nc(NC(=O)c2ccc3c(=O)n(-c4ccc(F)cc4)c(CCCCC(=O)O)cc3c2)no1 (stereo not drawn) |
| 7.59 | CC1(c2nc3ccc(F)cc3o2)CC(NC(=O)c2ccc3c(=O)n(-c4ccc(F)cc4)c(CCCCC(=O)O)cc3c2)=NO1 (stereo not drawn) |
| 8.11 | O=C(O)CCCCc1cc2cc(C(=O)Nc3noc(Cc4ccc(F)cc4)n3)ccc2c(=O)n1-c1ccc(F)cc1 |
| 8.04 | C[C@@H](NC(=O)c1ccc2c(=O)n(-c3ccc(C#N)cc3)c(CCCCC(=O)O)cc2c1)c1ccc(F)cc1 |
| 7.62 | C[C@@H]1CN(c2ccc(F)cc2)CCN1C(=O)c1ccc2c(=O)n(-c3ccc(F)cc3)c(CCCCC(=O)O)cc2c1 |
| 8.07 | COc1ccc(-n2c(CCCCC(=O)O)cc3cc(C(=O)N[C@H](C)c4ccc(F)cc4)ccc3c2=O)cc1 |
| 7.96 | O=C(O)CCCCc1cc2cc(C(=O)Nc3cc(Cc4ccc(F)cc4)on3)ccc2c(=O)n1-c1ccc(F)cc1 |
| 6.15 | C[C@@H](NC(=O)c1ccc2c(=O)[nH]c(CCCCC(=O)O)cc2c1)c1ccc(F)cc1 |
| 8.23 | C[C@@H](NC(=O)c1ccc2c(=O)n(-c3ccc(F)cc3)c(CCCCC(=O)O)cc2c1)c1ccc(F)cc1 |
